The results in this text go back to PubChem BioAssay AID1259407 (Chemical Carcinogenesis Research Information System (CCRIS), 2018).

The test system of the data set is CCRIS mutagenicity, Ames/micronucleus/aberration tests. The experiment in a line: CCRIS mutagenicity studies. From the text: The CCRIS database contains chemical records with carcinogenicity, mutagenicity, tumor promotion, and tumor inhibition test results. It was developed by the National Cancer Institute (NCI). Data are derived from studies cited in primary journals, current awareness tools, NCI reports, and other sources. Test results have been reviewed by experts in carcinogenesis and mutagenesis.
CCRIS provides historical information from the years 1985 - 2011. It is no longer updated.
This is an archive assay for CCRIS mutagenicity studies.

Where [1] appears, read: Test System: AMES SALMONELLA TYPHIMURIUM, Strain/Indicator: TA98, Metabolic Activation: NONE, Method: STANDARD PLATE.
Where [2] appears, read: Test System: AMES SALMONELLA TYPHIMURIUM, Strain/Indicator: TA100, Metabolic Activation: NONE, Method: STANDARD PLATE.
[3] abbreviates: Test System: AMES SALMONELLA TYPHIMURIUM, Strain/Indicator: TA98, Metabolic Activation: NONE, Method: PREINCUBATION
Where [4] appears, read: Test System: AMES SALMONELLA TYPHIMURIUM, Strain/Indicator: TA100, Metabolic Activation: NONE, Method: PREINCUBATION
Where [5] appears, read: Test System: AMES SALMONELLA TYPHIMURIUM, Strain/Indicator: TA1537, Metabolic Activation: NONE, Method: STANDARD PLATE.

Activity calls are given as the source filed them. How the calls were made is not given here.

Consider `O=[N+]([O-])c1ccc2c(c1)nc(/C=N/OCc1ccccc1[N+](=O)[O-])n2Cc1ccccc1`, for which the mutagenic call reads like this: under setting [1], “active; positive”; (Test System: AMES SALMONELLA TYPHIMURIUM, Strain/Indicator: TA98, Metabolic Activation: RAT, LIVER, S-9, PHENOBARBITAL AND BETA-NAPHTHOFLAVONE, Method: STANDARD PLATE) “active; positive”; under setting [2], “active; positive”; (Test System: AMES SALMONELLA TYPHIMURIUM, Strain/Indicator: TA100, Metabolic Activation: RAT, LIVER, S-9, PHENOBARBITAL AND BETA-NAPHTHOFLAVONE, Method: STANDARD PLATE) “active; positive”.
In the case of `COC(=O)c1oc(NOC(C)=O)c(-c2ccccc2)c1-c1ccccc1`, the mutagenic call reads like this: under setting [3], “inactive; negative”; (Test System: AMES SALMONELLA TYPHIMURIUM, Strain/Indicator: TA98, Metabolic Activation: RAT, LIVER, S-9, AROCLOR, Method: PREINCUBATION) “inactive; negative”; under setting [4], “inactive; negative”; (Test System: AMES SALMONELLA TYPHIMURIUM, Strain/Indicator: TA100, Metabolic Activation: RAT, LIVER, S-9, AROCLOR, Method: PREINCUBATION) “inactive; negative”.
Consider `Cn1c(NO)nc2c3cccnc3ccc21`, for which the mutagenic call reads like this: (Test System: AMES SALMONELLA TYPHIMURIUM, Strain/Indicator: TA98(NR), Metabolic Activation: NADPH, Method: STANDARD PLATE) “active; positive”; (Test System: AMES SALMONELLA TYPHIMURIUM, Strain/Indicator: TA98(NR), Metabolic Activation: NONE, Method: STANDARD PLATE) “active; positive”; (Test System: AMES SALMONELLA TYPHIMURIUM, Strain/Indicator: TA98(NR), Metabolic Activation: RAT, LIVER, MICROSOMES, NADPH, Method: STANDARD PLATE) “active; positive”; (Test System: AMES SALMONELLA TYPHIMURIUM, Strain/Indicator: TA98(NR), Metabolic Activation: RAT, LIVER, MICROSOMES, Method: STANDARD PLATE) “active; positive”; (Test System: AMES SALMONELLA TYPHIMURIUM, Strain/Indicator: TA98(NR), Method: STANDARD PLATE) “active; positive”; under setting [1], “active; positive”.
Take `COS(=O)(=O)c1ccc(C)cc1`: the mutagenic call is, setting by setting: (End Point: IN VITRO MICRONUCLEUS, Test System: MOUSE LYMPHOMA L5178Y CELLS, Metabolic Activation: NONE) “active; positive”; (End Point: IN VITRO MICRONUCLEUS, Test System: MOUSE LYMPHOMA L5178Y CELLS, Metabolic Activation: RAT, LIVER, S-9) “active; positive”; (End Point: In vitro micronucleus, Test System: Chinese Hamster Ovary (CHO-WBL) cells, Metabolic Activation: None) “active; positive (p<0.01)”; under setting [2], “active; positive”; (Test System: AMES SALMONELLA TYPHIMURIUM, Strain/Indicator: TA100, Metabolic Activation: RAT, LIVER, S-9, Method: STANDARD PLATE) “active; positive”.
As to `C/C(=C(/OCCOc1ccc(Cl)cc1)c1ccc(Cl)cc1Cl)n1ccnc1`, the mutagenic call under setting [1] was “inactive; negative”; the mutagenic call (Test System: AMES SALMONELLA TYPHIMURIUM, Strain/Indicator: TA98, Metabolic Activation: RAT, LIVER, S-9, PHENOBARBITAL AND 5,6-BENZOFLAVONE, Method: STANDARD PLATE) is “inactive; negative”; the mutagenic call under setting [2] was “inactive; negative”; the mutagenic call (Test System: AMES SALMONELLA TYPHIMURIUM, Strain/Indicator: TA100, Metabolic Activation: RAT, LIVER, S-9, PHENOBARBITAL AND 5,6-BENZOFLAVONE, Method: STANDARD PLATE) was “inactive; negative”; the mutagenic call (Test System: AMES SALMONELLA TYPHIMURIUM, Strain/Indicator: TA1535, Metabolic Activation: NONE, Method: STANDARD PLATE) was “inactive; negative”; the mutagenic call (Test System: AMES SALMONELLA TYPHIMURIUM, Strain/Indicator: TA1535, Metabolic Activation: RAT, LIVER, S-9, PHENOBARBITAL AND 5,6-BENZOFLAVONE, Method: STANDARD PLATE) was “inactive; negative”. The mutagenic call is “inactive; negative” under setting [5]; “inactive; negative” (Test System: AMES SALMONELLA TYPHIMURIUM, Strain/Indicator: TA1537, Metabolic Activation: RAT, LIVER, S-9, PHENOBARBITAL AND 5,6-BENZOFLAVONE, Method: STANDARD PLATE); “inactive; negative” (Test System: E. COLI, Strain/Indicator: WP2 UVRA, Metabolic Activation: NONE, Method: STANDARD PLATE); “inactive; negative” (Test System: E. COLI, Strain/Indicator: WP2 UVRA, Metabolic Activation: RAT, LIVER, S-9, PHENOBARBITAL AND 5,6-BENZOFLAVONE, Method: STANDARD PLATE).
With `NC(=O)NNC(N)=O`, the mutagenic call was “inactive; negative” (Test System: AMES SALMONELLA TYPHIMURIUM, Strain/Indicator: TA97, Metabolic Activation: HAMSTER, LIVER, S-9, AROCLOR 1254 (10 OR 30%), Method: PREINCUBATION); “inactive; negative” (Test System: AMES SALMONELLA TYPHIMURIUM, Strain/Indicator: TA97, Metabolic Activation: NONE, Method: PREINCUBATION); “inactive; negative” (Test System: AMES SALMONELLA TYPHIMURIUM, Strain/Indicator: TA97, Metabolic Activation: RAT, LIVER, S-9, AROCLOR 1254 (10 OR 30%), Method: PREINCUBATION); “inactive; negative” (Test System: AMES SALMONELLA TYPHIMURIUM, Strain/Indicator: TA98, Metabolic Activation: HAMSTER, LIVER, S-9, AROCLOR 1254 (10 OR 30%), Method: PREINCUBATION); “inactive; negative” under setting [3]; “inactive; negative” (Test System: AMES SALMONELLA TYPHIMURIUM, Strain/Indicator: TA98, Metabolic Activation: RAT, LIVER, S-9, AROCLOR 1254 (10 OR 30%), Method: PREINCUBATION). Besides, the mutagenic call was “inactive; negative” (Test System: AMES SALMONELLA TYPHIMURIUM, Strain/Indicator: TA100, Metabolic Activation: HAMSTER, LIVER, S-9, AROCLOR 1254 (10 OR 30%), Method: PREINCUBATION); “inactive; negative” under setting [4]; “inactive; negative” (Test System: AMES SALMONELLA TYPHIMURIUM, Strain/Indicator: TA100, Metabolic Activation: RAT, LIVER, S-9, AROCLOR 1254 (10 OR 30%), Method: PREINCUBATION); “inactive; negative” (Test System: AMES SALMONELLA TYPHIMURIUM, Strain/Indicator: TA1535, Metabolic Activation: HAMSTER, LIVER, S-9, AROCLOR 1254 (10 OR 30%), Method: PREINCUBATION); “inactive; negative” (Test System: AMES SALMONELLA TYPHIMURIUM, Strain/Indicator: TA1535, Metabolic Activation: NONE, Method: PREINCUBATION); “inactive; negative” (Test System: AMES SALMONELLA TYPHIMURIUM, Strain/Indicator: TA1535, Metabolic Activation: RAT, LIVER, S-9, AROCLOR 1254 (10 OR 30%), Method: PREINCUBATION). Besides, the mutagenic call runs as follows: (Test System: AMES SALMONELLA TYPHIMURIUM, Strain/Indicator: TA1537, Metabolic Activation: HAMSTER, LIVER, S-9, AROCLOR 1254 (10 OR 30%), Method: PREINCUBATION) “inactive; negative”; (Test System: AMES SALMONELLA TYPHIMURIUM, Strain/Indicator: TA1537, Metabolic Activation: NONE, Method: PREINCUBATION) “inactive; negative”; (Test System: AMES SALMONELLA TYPHIMURIUM, Strain/Indicator: TA1537, Metabolic Activation: RAT, LIVER, S-9, AROCLOR 1254 (10 OR 30%), Method: PREINCUBATION) “inactive; negative”.
On to `c1ccc2c(c1)-c1cc3ccc4ccccc4c3cc1C1OC21` (stereo not drawn), for which the mutagenic call is “inactive; negative” under setting [1]; “inactive; negative” under setting [2]; “active; positive” under setting [5]; “active; positive” (Test System: CHINESE HAMSTER V-79, Strain/Indicator: V-79/8-AZAGUANINE, Metabolic Activation: NONE, Method: STANDARD PLATE).
